In US9676773B2, “Azaindole derivative” (TAIHO PHARMACEUTICAL CO., LTD., priority 2014, dated 2017):

What was measured:
[1] = target: T1, purified recombinant human JAK3 protein (Homo sapiens, UniProt P52333); experiment: Measurement of JAK3 kinase-inhibitory activity; format: biochemical; conditions: substrate peptide 1 μM, ATP 5 μM, 25° C., 80 minutes
T1 construct: purchased Carna Biosciences, Inc
T1 sequence (P52333 1-1124): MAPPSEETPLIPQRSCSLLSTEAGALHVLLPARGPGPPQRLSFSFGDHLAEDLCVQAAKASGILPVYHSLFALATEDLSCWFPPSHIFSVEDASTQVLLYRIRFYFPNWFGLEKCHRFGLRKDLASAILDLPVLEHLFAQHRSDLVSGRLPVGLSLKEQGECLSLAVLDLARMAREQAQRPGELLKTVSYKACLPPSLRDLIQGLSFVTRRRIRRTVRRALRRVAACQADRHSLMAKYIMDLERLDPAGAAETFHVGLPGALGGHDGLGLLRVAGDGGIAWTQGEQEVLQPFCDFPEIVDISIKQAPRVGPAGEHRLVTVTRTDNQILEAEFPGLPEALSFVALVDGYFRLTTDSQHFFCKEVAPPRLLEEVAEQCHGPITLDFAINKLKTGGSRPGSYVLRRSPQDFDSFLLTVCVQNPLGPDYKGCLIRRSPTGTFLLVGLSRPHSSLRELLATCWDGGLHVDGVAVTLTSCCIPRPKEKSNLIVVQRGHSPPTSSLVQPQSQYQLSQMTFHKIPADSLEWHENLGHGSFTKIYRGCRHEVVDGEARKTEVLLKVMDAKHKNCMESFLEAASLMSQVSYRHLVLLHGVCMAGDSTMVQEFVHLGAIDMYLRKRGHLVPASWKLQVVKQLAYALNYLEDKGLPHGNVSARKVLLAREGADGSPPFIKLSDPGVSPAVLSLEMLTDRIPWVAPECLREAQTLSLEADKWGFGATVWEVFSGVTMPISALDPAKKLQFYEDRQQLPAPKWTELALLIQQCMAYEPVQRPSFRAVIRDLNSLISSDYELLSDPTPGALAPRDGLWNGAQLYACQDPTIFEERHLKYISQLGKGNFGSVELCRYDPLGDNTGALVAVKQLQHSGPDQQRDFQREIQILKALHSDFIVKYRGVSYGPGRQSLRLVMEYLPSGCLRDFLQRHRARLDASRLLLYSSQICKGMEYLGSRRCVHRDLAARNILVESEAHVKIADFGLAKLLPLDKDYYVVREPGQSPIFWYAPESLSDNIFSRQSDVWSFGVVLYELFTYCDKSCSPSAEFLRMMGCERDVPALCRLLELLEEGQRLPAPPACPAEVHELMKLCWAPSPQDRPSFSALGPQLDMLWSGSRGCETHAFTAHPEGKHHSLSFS
Procedure: 3) Measurement of JAK3 Kinase-Inhibitory Activity
The activity of the compound of the present invention to inhibit the activity of JAK3 kinase was measured.
Among materials for the measurement of this inhibitory activity, a substrate peptide and a kinase protein were acquired as follows. As such a substrate peptide, a substrate peptide for QSS Assist™ JAK3-MSA assay kit (Carna Biosciences, Inc.) was purchased. As such a kinase protein, a purified recombinant human JAK3 protein (Carna Biosciences, Inc.) was purchased.
The method for measuring the inhibitory activity is as follows. First, a serial dilution of the compound of the present invention was prepared by the same method as that described in the above section regarding JAK1. This serial dilution solution (the final concentration of DMSO upon a kinase reaction: 5.0%) or DMSO (final concentration: 5.0%) was mixed with a solution containing the substrate peptide (final concentration: 1 μM), magnesium chloride (final concentration: 5 mM) and ATP (final concentration: 5 μM) in a buffer for kinase reaction (20 mM HEPES (pH 7.5), 2 mM dithiothreitol and 0.01% Triton X-100). Thereafter, a JAK3 protein was further added to the mixed solution, and the obtained mixture was then incubated at 25° C. for 80 minutes to carry out a kinase reaction. To the reaction solution, EDTA was added to a final concentration of 30 mM, so as to terminate the reaction. After termination of the reaction, the measurement and the data analysis were carried out by the same methods as those described in the above section regarding JAK1.

human PBMC = experiment: IL-2-dependent growth of human peripheral blood mononuclear cells (PBMC); format: cell-based; conditions: PHA-M pre-culture 3 days, IL-2 2 ng/mL, 2 days, CellTiter-Glo, read-out: PSMC IC50
Procedure: The activity of the compound of the present invention to inhibit the IL-2-dependent growth reaction of human PBMC, which is caused by JAK3, was measured (Arthritis Rheum. 2010; 62(8): 2283-93).
With a medium containing 10 μg/mL PHA-M (Sigma) (which is RPI-1640 (Sigma) containing 10% human serum type AB (MP Biomedicals)), human PBMC (C.T.L.) (cell density: 1×10^6 cells/mL) was cultured at 37° C. in a culture vessel containing 5% carbon dioxide for 3 days. Thereafter, the culture was washed with RPMI-1640 four times, and a medium (RPMI-1640 containing 10% human serum type AB) was then added to the resultant culture to prepare a cell suspension. The cells (1×10^4 cells per well) and the serially diluted compound of the present invention were added to each well of a 96-well U-bottom microplate, and thus obtained mixture was then cultured at 37° C. in a culture vessel containing 5% carbon dioxide for 30 minutes. After completion of the culture, recombinant human IL-2 (Peprotech) was added to the culture to a final concentration of 2 ng/mL, and the obtained mixture was then stirred at 37° C. in a culture vessel containing 5% carbon dioxide for 2 days (1×10^4 cells/100 μl/each well). After completion of the culture, the resultant was left at a room temperature for 30 minutes, and 100 μl of CellTiter-Glo Luminescent Cell Viability Assay (Promega) was then added to the resultant, followed by stirring it. Thereafter, the reaction mixture was left for 10 minutes, and the amount of a luminescence derived from living cells in each well was then measured with a microplate reader (TECAN). The inhibition rate of the compound to the cell growth caused by IL-2 stimulation was calculated, and the concentration of the compound capable of inhibiting 50% of the cell growth was defined as an […] value (nM).

SMILES | IC50 [1] [nM] | IC50 (human PBMC) [nM]
C1=C(c2ccnc3[nH]ccc23)CCCC1 [Comparative Example 1, reference compound] | 250 | > 3000
C=CC(=O)N[C@H]1CCC=C(c2ccnc3[nH]cc(-c4ccno4)c23)C1 [Compound 59] | < 0.3 | 55
C=CC(=O)NC1CCC=C(c2ccnc3[nH]cc(-c4ccc(F)nc4)c23)C1 (stereo not drawn) [Compound 37, N-(3-(3-(6-Fluoropyridin-3-yl)-1H-pyrrolo[2,3-b]pyridin-4-yl)cyclohex-3-en-1-yl)acrylamide] | < 0.3 | 159
Cc1nc(-c2c[nH]c3ncc(-c4ccccc4)cc23)cs1 [Comparative Example 3, 2-Methyl-4-(5-phenyl-1H-pyrrolo[2,3-b]pyridin-3-yl)thiazole, reference compound] | 460 | > 3000
C=CC(=O)NC1CCC=C(c2ccnc3[nH]cc(-c4cn[nH]c4)c23)C1 (stereo not drawn) [Compound 3, N-(3-(3-(1H-Pyrazol-4-yl)-1H-pyrrolo[2,3-b]pyridin-4-yl)cyclohex-3-en-1-yl)acrylamide] | < 0.3 | 182
C=CC(=O)NC1CCC=C(c2ccnc3[nH]cc(-c4ccc(CO)o4)c23)C1 (stereo not drawn) [Compound 10, N-(3-(3-(5-(Hydroxymethyl)furan-2-yl)-1H-pyrrolo[2,3-b]pyridin-4-yl)cyclohex-3-en-1-yl)acrylamide] | < 0.3 | 136
C=CC(=O)NC1CCC=C(c2ccnc3[nH]cc(-c4ccco4)c23)C1 (stereo not drawn) [Compound 12, N-(3-(3-(Furan-2-yl)-1H-pyrrolo[2,3-b]pyridin-4-yl)cyclohex-3-en-1-yl)acrylamide] | < 0.3 | 123
C=CC(=O)NC1CCC=C(c2ccnc3[nH]cc(-c4cccnc4OC)c23)C1 (stereo not drawn) [Compound 6, N-(3-(3-(2-Methoxypyridin-3-yl)-1H-pyrrolo[2,3-b]pyridin-4-yl)cyclohex-3-en-1-yl)acrylamide] | 0.42 | 181
C=CC(=O)NC1CCC=C(c2ccnc3[nH]cc(-c4nncs4)c23)C1 (stereo not drawn) [Compound 54] | 0.45 | 170
C=CC(=O)NC1CC=C(c2ccnc3[nH]cc(-c4nnco4)c23)C1 (stereo not drawn) [Compound 57, N-(3-(3-(1,3,4-Oxadiazol-2-yl)-1H-pyrrolo[2,3-b]pyridin-4-yl)cyclopent-3-en-1-yl)acrylamide] | 0.57 | 304
C=CC(=O)NC1CCC=C(c2ccnc3[nH]cc(C4=CCOC4)c23)C1 (stereo not drawn) [Compound 34, N-(3-(3-(2,5-Dihydrofuran-3-yl)-1H-pyrrolo[2,3-b]pyridin-4-yl)cyclohex-3-en-1-yl)acrylamide] | < 0.3 | 82
C=CC(=O)NC1CCC=C(c2ccnc3[nH]cc(-c4ccccc4)c23)C1 (stereo not drawn) [Compound 1, N-(3-(3-Phenyl-1H-pyrrolo[2,3-b]pyridin-4-yl)cyclohex-3-en-1-yl)acrylamide] | < 0.3 | 216
C1=C(c2ccnc3[nH]ccc23)CCC1 [Comparative Example 2, 4-(Cyclopent-1-en-1-yl)-1H-pyrrolo[2,3-b]pyridine, reference compound] | 350 | > 3000

Now from value to compound, other results behind:

IC50 [1] [nM] | SMILES | IC50 (human PBMC) [nM]
< 0.3 | C=CC(=O)NC1CCC=C(c2ccnc3[nH]cc(-c4nn(C)c(=O)o4)c23)C1 (stereo not drawn) [Compound 53, N-(3-(3-(4-Methyl-5-oxo-4,5-dihydro-1,3,4-oxadiazol-2-yl)-1H-pyrrolo[2,3-b]pyridin-4-yl)cyclohex-3-en-1-yl)acrylamide] | 162
< 0.3 | C=CC(=O)NC1CCC=C(c2ccnc3[nH]cc(-c4nnco4)c23)C1 (stereo not drawn) [Compound 49, N-(3-(3-(1,3,4-Oxadiazol-2-yl)-1H-pyrrolo[2,3-b]pyridin-4-yl)cyclohex-3-en-1-yl)acrylamide] | 122
< 0.3 | C=CC(=O)NC1CCC=C(c2ccnc3[nH]cc(-c4cc(CO)co4)c23)C1 (stereo not drawn) [Compound 14, N-(3-(3-(4-(Hydroxymethyl)furan-2-yl)-1H-pyrrolo[2,3-b]pyridin-4-yl)cyclohex-3-en-1-yl)acrylamide] | 114
< 0.3 | C=CC(=O)N[C@H]1CCC=C(c2ccnc3[nH]cc(-c4nnco4)c23)C1 [Compound 55, (S)—N-(3-(3-(1,3,4-Oxadiazol-2-yl)-1H-pyrrolo[2,3-b]pyridin-4-yl)cyclohex-3-en-1-yl)acrylamide] | 34
< 0.3 | C=CC(=O)NC1CCC=C(c2ccnc3[nH]cc(-c4cnco4)c23)C1 (stereo not drawn) [Compound 48, N-(3-(3-(Oxazol-5-yl)-1H-pyrrolo[2,3-b]pyridin-4-yl)cyclohex-3-en-1-yl)acrylamide] | 114
